Article PMC6093650, “Antidepressive and anxiolytic effects of ostruthin, a TREK-1 channel activator” (PLoS ONE, 2018)

What was measured:
[1] = molecular target: Kv1.4 (Homo sapiens, UniProt P22459); assay: whole-cell patch-clamp of Kv1.4 currents in 293T cells; format: cell-based; details: n = 5
Source text: For recordings of K^+ channel currents, we prepared stable cell lines for TREK-1, TWIK-related acid-sensitive K^+ channel (TASK-1), strongly inwardly rectifying K^+ channel (Kir2.1), and human ether-a-go-go-related gene (HERG-1) channels and transiently expressed other channels in 293T cells using a calcium-phosphate transfection method. For the establishment of the stable lines, we used lentiviral vectors, and the preparation methods for the lentiviral vectors were described in our previous report. TR-1 cells, which stably expressed TREK-1 channel and were grown on a small cover glass (3 × 18 mm), were placed in a recording chamber with an internal volume of 200 μl. Whole-cell currents were recorded in Tyrode solution using an Axopatch 200B amplifier (Axon Instruments, Foster City, CA) at 25°C. Tyrode solution contained (in mM): NaCl 140, KCl 5.4, NaH2PO4 0.33, CaCl2 2, MgCl2 1, HEPES 5, and glucose 5.5 (pH 7.4 adjusted with NaOH). […] Perfusion (100 μl/min) was continued to maintain the water level throughout recordings. pH and osmotic pressure of solutions were measured with a pH meter (Horiba, Kyoto, Japan) and a freezing point osmometer (Knauer, Berlin, Germany), respectively. […]

[2] = tested on: depression-like behavior of mice; assay: forced swim test; format: in vivo; details: 0, 2, 5, 20 mg/kg i.p. 30 min before test, dose-dependent, last 4 min of 6 min, n = 8
Source text: Male ICR mice (n = 317 in total) aged 5 weeks and weighing 32 ± 2 g were purchased from Shimizu Laboratory Supplies (Kyoto, Japan). For the social defeat stress test, we used 28 C57BL/6J mice (5 weeks old, Shimizu Laboratory Supplies) and 30 ICR mice (7–8 weeks old, Charles River Labs Japan, Yokohama, Kanagawa, Japan). Mice were maintained for at least 1 week prior to experiments. Animals were kept in groups in plastic cages. They had free access to food and water, and were kept in a 12-h light/dark cycle (08:00–20:00). Experiments were carried out between 10:00 and 18:00 in a quiet and air-conditioned experimental room, in which mice were habituated for at least 30 min before each experiment. Animal experiments were performed in accordance with the guidelines of the Physiological Society of Japan and were approved by the Committees on Animal Experiments at Kansai Medical University and the Kurashiki University of Science and the Arts. Ostruthin was initially dissolved in DMSO at higher concentration (100 mM) and then diluted in phosphate-buffered saline (PBS). The diluted solution was mixed vigorously for more than 10 min before the experiments, and an equal volume of DMSO was added to PBS as a control. […]
The forced swim test was performed in accordance with a method reported previously. […] Mouse was allowed to swim for 6 min and the activity was measured. […]

[3] = tested on: mice anxiety-like behavior; assay: open-field test; format: in vivo; details: n = 12
Source text: Male ICR mice (n = 317 in total) aged 5 weeks and weighing 32 ± 2 g were purchased from Shimizu Laboratory Supplies (Kyoto, Japan). For the social defeat stress test, we used 28 C57BL/6J mice (5 weeks old, Shimizu Laboratory Supplies) and 30 ICR mice (7–8 weeks old, Charles River Labs Japan, Yokohama, Kanagawa, Japan). Mice were maintained for at least 1 week prior to experiments. Animals were kept in groups in plastic cages. They had free access to food and water, and were kept in a 12-h light/dark cycle (08:00–20:00). Experiments were carried out between 10:00 and 18:00 in a quiet and air-conditioned experimental room, in which mice were habituated for at least 30 min before each experiment. Animal experiments were performed in accordance with the guidelines of the Physiological Society of Japan and were approved by the Committees on Animal Experiments at Kansai Medical University and the Kurashiki University of Science and the Arts. Ostruthin was initially dissolved in DMSO at higher concentration (100 mM) and then diluted in phosphate-buffered saline (PBS). The diluted solution was mixed vigorously for more than 10 min before the experiments, and an equal volume of DMSO was added to PBS as a control. PBS and ostruthin were administered intraperitoneally 30 min before mice behavioral tests (0.01 ml/g body weight). Each animal was used only once, except for the wheel running test, which was carried out immediately after elevated plus maze.
The open-field test was performed in accordance with a previous report with minor modifications. The open-field consisted of a square (90 × 90 cm), in which the floor was divided into 16 equal squares. After a mouse was placed in a corner of the open field facing the wall, the number of the entries into the central squares, and whole line crossings were counted for 5 min. After removal of animal, the apparatus was cleaned and wiped.

[4] = tested on: depression-like behavior of mice; assay: social defeat stress test; format: in vivo; details: C57BL/6J mice after 9 days of defeat, p = 0.440, n = 14
Source text: Male ICR mice (n = 317 in total) aged 5 weeks and weighing 32 ± 2 g were purchased from Shimizu Laboratory Supplies (Kyoto, Japan). For the social defeat stress test, we used 28 C57BL/6J mice (5 weeks old, Shimizu Laboratory Supplies) and 30 ICR mice (7–8 weeks old, Charles River Labs Japan, Yokohama, Kanagawa, Japan). Mice were maintained for at least 1 week prior to experiments. Animals were kept in groups in plastic cages. They had free access to food and water, and were kept in a 12-h light/dark cycle (08:00–20:00). Experiments were carried out between 10:00 and 18:00 in a quiet and air-conditioned experimental room, in which mice were habituated for at least 30 min before each experiment. Animal experiments were performed in accordance with the guidelines of the Physiological Society of Japan and were approved by the Committees on Animal Experiments at Kansai Medical University and the Kurashiki University of Science and the Arts. Ostruthin was initially dissolved in DMSO at higher concentration (100 mM) and then diluted in phosphate-buffered saline (PBS). The diluted solution was mixed vigorously for more than 10 min before the experiments, and an equal volume of DMSO was added to PBS as a control. […] Time spent in the target zone was measured firstly with the empty mesh enclosure for 150 sec. […]

Sequence of Kv1.4 (P22459 whole entry): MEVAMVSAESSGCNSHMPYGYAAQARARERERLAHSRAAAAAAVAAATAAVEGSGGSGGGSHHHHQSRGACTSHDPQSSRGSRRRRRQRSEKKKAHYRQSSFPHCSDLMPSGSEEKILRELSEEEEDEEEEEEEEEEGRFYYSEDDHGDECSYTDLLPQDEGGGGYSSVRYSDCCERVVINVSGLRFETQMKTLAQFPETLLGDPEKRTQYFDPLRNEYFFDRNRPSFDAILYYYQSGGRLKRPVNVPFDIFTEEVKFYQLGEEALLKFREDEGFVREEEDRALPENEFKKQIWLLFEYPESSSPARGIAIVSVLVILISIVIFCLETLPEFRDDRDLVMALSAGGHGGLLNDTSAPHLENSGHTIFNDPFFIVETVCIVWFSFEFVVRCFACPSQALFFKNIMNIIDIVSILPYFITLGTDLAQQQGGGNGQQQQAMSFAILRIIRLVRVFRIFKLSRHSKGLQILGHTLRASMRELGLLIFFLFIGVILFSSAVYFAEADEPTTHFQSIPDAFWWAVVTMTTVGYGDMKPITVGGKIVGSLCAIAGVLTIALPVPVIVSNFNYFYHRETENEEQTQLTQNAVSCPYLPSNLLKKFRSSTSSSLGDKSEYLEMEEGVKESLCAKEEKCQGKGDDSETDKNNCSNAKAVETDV

Structure (SMILES): CC(C)=CCC/C(C)=C/Cc1cc2ccc(=O)oc2cc1O [ostruthin]
- IC50 [1]: 269 µM
- time spent immobile [2]: decreased
- number of entries to the central area ([3]; 20 mg/kg i.p. 30 min before test, vs 5 mg/kg): significantly decreased
- total line crossings ([3]; 20 mg/kg i.p., vs 5 mg/kg): decrease
- number of entries to the central area ([3]; 2 and 5 mg/kg i.p. 30 min before test, vs 0 mg/kg, 5 min): significantly increased
- total line crossings ([3]; 2 and 5 mg/kg i.p. 30 min before test, vs 0 mg/kg): increased
- time difference in the interaction area (target zone) [4]: increased the time difference in the interaction area non-significantly
